Experimental data as given in the METLIN SMRT retention time set (Domingo-Almenara et al. 2019).

Assay: gradient 5% acetonitrile 3 min, to 50% in 2 min, to 85% in 15 min, held 3 min, 100 µL/min
Conditions: column: Zorbax Extend-C18 2.1 x 50 mm; eluents: water / acetonitrile, 0.1% formic acid
Procedure, shortened: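 Retention time was recorded from adduct peaks, which were picked computationally and each inspected manually. Pure standards ran in mixtures of ~100 molecules on HPLC coupled to a quadrupole time-of-flight mass spectrometer, in positive and negative ionization mode, through a Zorbax Extend-C18 column (2.1 × 50 mm, 1.8 μm) at 100 μL/min. Eluents were water and acetonitrile, each with 0.1% formic acid.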

Work on `COCCNC(=O)c1cccnc1N1CCNC(c2ccccc2)C1` (stereo not drawn) yielded an RP-LC retention time of 564 s.
For `CC(NC(=O)c1ccco1)c1nc(-c2ccc3c(c2)ncn3C2CCCC2)no1` (stereo not drawn), the RP-LC retention time was 674 s.
`COc1ccc(C)cc1NC(=O)N1CCC2(CC1)NC(=O)c1ccccc1N2C` showed an RP-LC retention time of 807 s.
Work on `CCc1cc(=O)n(CC(=O)Nc2cccc(C#N)c2)c(-c2ccccc2)n1` yielded an RP-LC retention time of 1080 s.
In the case of `Cc1ccc(-c2cc3c4nnc(SCC(=O)Nc5cccc(Cl)c5C)n4ccn3n2)cc1C`, the RP-LC retention time is reported as 1060 s.
Compound `Cc1ccc(Cl)cc1-n1ncc2c(NCCN3CCOCC3)ncnc21` has an RP-LC retention time of 629 s.
Compound `COC(=O)c1cc(OC)c(OC)cc1NC(=O)c1ccc(CSc2ccccc2)o1` has an RP-LC retention time of 1070 s.
For `Cc1ccc(CN(Cc2ccc(-c3ccccc3S(=O)(=O)NC#N)cc2)C(=O)c2ccccc2Cl)cc1`, the RP-LC retention time was 1060 s.
Compound `Cc1nc2cc3c(cc2n1CC(=O)NCc1ccc(F)cc1)OCCO3` has an RP-LC retention time of 636 s.
Work on `CN(C)c1ccc(-c2nc3cnc(Br)cn3c2Nc2ccc3c(c2)OCO3)cc1` yielded an RP-LC retention time of 894 s.
`CCn1cc(CCNC(=O)Nc2c(C)cccc2C)c2cccnc21` gave an RP-LC retention time of 705 s.
For `COC(=O)Cn1c(C2CC(=O)N(c3cccc(C)c3)C2)nc2ccccc21` (stereo not drawn), the RP-LC retention time was 758 s.
In the case of `Cc1ccc(NC(=O)C2CCN(S(=O)(=O)c3ccc4c(c3)CCCC(=O)N4)CC2)c(C)c1`, the RP-LC retention time is reported as 774 s.
Compound `O=C(Cn1c(=O)nc(N2CCCCC2)c2ccccc21)Nc1ccc2c(c1)OCCO2` has an RP-LC retention time of 728 s.
In the case of `O=C(Nc1nc(-c2ccc3ccccc3c2)cs1)c1cccc(Cn2cc(Cl)cn2)c1`, the RP-LC retention time is reported as 1140 s.
For `Cc1cc(NC(=O)C(C)C)nn1Cc1ccccc1`, the RP-LC retention time was 778 s.
With `CCOC(=O)c1c(CN(C)C)n(-c2ccccc2)c2cc(-c3cccnc3)c(O)cc12` the RP-LC retention time was 576 s.
For `Cc1cccc(NC(=O)CSc2nc(N3CCCCC3)nc3ccccc23)c1`, the RP-LC retention time was 758 s.
Work on `CNC(=O)Cc1csc(NC(=O)c2csc(Nc3cccc(C)n3)n2)n1` yielded an RP-LC retention time of 711 s.
In the case of `O=C(Cn1ncc2c(N3CCN(c4ccccn4)CC3)ncnc21)Nc1ccc(Cl)cc1F`, the RP-LC retention time is reported as 640 s.
With `Cc1cccc(OCc2nc(-c3ccc(NS(C)(=O)=O)cc3)no2)c1` the RP-LC retention time was 801 s.
`COc1ccc(-n2c(SCc3nc(-c4ccc(C)cc4)no3)nnc2-c2ccncc2)cc1` showed an RP-LC retention time of 1000 s.
Work on `COc1ccccc1-c1nc(Cn2ccnc2)no1` yielded an RP-LC retention time of 580 s.
Work on `Cc1ccccc1Cn1c(CN2CCC(C(=O)NCCc3ccco3)CC2)cc2ccccc21` yielded an RP-LC retention time of 805 s.
For `COc1ccc(CCc2nc3nccc(-c4ccccc4)n3n2)cc1OC`, the RP-LC retention time was 821 s.
With `Cc1ccc(NC(=O)c2cnc(-c3ccccc3)nc2-c2ccncc2)c(Br)c1` the RP-LC retention time was 987 s.
For `Cc1ccc(C)c(NC(=O)C2CCCN(c3ncnc4c3nc3n4CCCCC3)C2)c1` (stereo not drawn), the RP-LC retention time was 793 s.
`CC(C)CC(=O)Nc1ccc(S(=O)(=O)N2CCCC2c2nc(-c3ccc(Cl)cc3)no2)cc1` (stereo not drawn) gave an RP-LC retention time of 1160 s.
For `COCCn1cc(C(=O)NC2CCCCC2)c2nn(-c3ccccc3)c(=O)c-2c1`, the RP-LC retention time was 925 s.
In the case of `CCc1ccccc1S(=O)(=O)N1C[C@@H]2C(=O)N(C(CC)c3cccs3)C(=O)[C@@H]2C1` (stereo partly drawn), the RP-LC retention time is reported as 1070 s.
In the case of `CC(C)NC(=O)c1sc(-n2cccc2)nc1C(C)C`, the RP-LC retention time is reported as 1060 s.
`Cc1ccc(N2CC(c3nc(-c4ccc5c(c4)ncn5C)no3)CC2=O)cc1` (stereo not drawn) showed an RP-LC retention time of 664 s.
For `Cc1ccc(-n2c(=O)c3sccc3n(Cc3nc(-c4cccc(C(F)(F)F)c4)no3)c2=O)cc1`, the RP-LC retention time was 1100 s.
Work on `Cc1ccc(CN2C(=O)NC3(CCN(C(=O)c4sccc4C)CC3)C2=O)cc1` yielded an RP-LC retention time of 825 s.
`Cc1noc2nc(CCC(=O)NCCCN3CCc4ccccc4C3)nc(N3CCOCC3)c12` showed an RP-LC retention time of 605 s.
Work on `CN(Cc1ccc(Cl)cc1)Cc1cc(=O)n2ccccc2n1` yielded an RP-LC retention time of 602 s.
In the case of `COC(=O)c1cccc(C(=O)Nc2ccc(C)c(C)c2)n1`, the RP-LC retention time is reported as 910 s.
With `O=C(NC1CC1)c1cccc(OCC2CCCN(C(=O)C3CCC3)C2)c1` (stereo not drawn) the RP-LC retention time was 789 s.
`CCOC(=O)c1cc(C2CC2)nc2c1c(=O)n(Cc1ccc(F)cc1)c(=O)n2C` gave an RP-LC retention time of 1200 s.
`CC(C)(C)NCC(O)c1cc(Cl)c(N)c(C(F)(F)F)c1` (stereo not drawn) gave an RP-LC retention time of 708 s.
For `O=C(c1cn(-c2cc(-c3nc(C4CC4)no3)ccn2)cn1)N1CCCCC1`, the RP-LC retention time was 810 s.
With `Cc1cc2n(n1)CCCN2Cc1ccc(C(=O)NCCCN2CCCC2=O)cc1` the RP-LC retention time was 587 s.
`CCNC(=O)N1CCCC(c2cccc(C(=O)NC3CCCCC3)c2)C1` (stereo not drawn) showed an RP-LC retention time of 817 s.
For `Cc1cc2n(n1)CCCN2C(=O)CCC(=O)N1CCc2ccccc2C1`, the RP-LC retention time was 699 s.
With `Cc1sc2cc(C(=O)N3CCCC3)[nH]c2c1CN1CCCCC1` the RP-LC retention time was 646 s.
Compound `O=C(c1cccc(Br)c1)N1CCC(n2c(-c3ccoc3)nc3cccnc32)C1` (stereo not drawn) has an RP-LC retention time of 775 s.
Compound `CCOC(=O)c1cc(OCC)c2c(ccc3ccccc32)n1` has an RP-LC retention time of 1080 s.
`COc1cccc(-c2ccc(=O)n(Cc3nc(-c4ccccc4Br)no3)n2)c1` gave an RP-LC retention time of 997 s.
Compound `O=C(Nc1ccc(C2(C(=O)NCc3ccc(F)c(Cl)c3)CCC2)cc1)C1CC1` has an RP-LC retention time of 903 s.
With `COc1ccc(OC)c(CNC(=O)C2CCN(C(=O)C3Sc4ccccc4NC3=O)CC2)c1` (stereo not drawn) the RP-LC retention time was 743 s.
For `CCOC(=O)c1cnc2nc(C)ccc2c1Nc1ccc(C)c(F)c1`, the RP-LC retention time was 736 s.
`CCC(=O)N1CCc2cc(C(=O)N3CCN(Cc4ccc5c(c4)OCO5)CC3)ccc21` gave an RP-LC retention time of 611 s.
In the case of `CCCN1CCN(C(=O)c2ccc(S(=O)(=O)c3ccccc3)s2)CC1`, the RP-LC retention time is reported as 630 s.
For `O=S(=O)(Cc1ccc(Cl)cc1)c1nc2ccccc2nc1N1CCOCC1`, the RP-LC retention time was 756 s.
`O=C([C@@H]1C[C@H](Oc2cccnc2)CN1C(=O)CC1CCCC1)N1CCCC1` showed an RP-LC retention time of 600 s.
Compound `CCS(=O)(=O)N1CC(=O)N(c2cccc(C)c2C)C(C)(C(=O)NC2CCCCCC2)C1` (stereo not drawn) has an RP-LC retention time of 930 s.
`CN(C)C[C@@H]1CN(c2ncccn2)C[C@H]1NC(=O)NCc1ccco1` gave an RP-LC retention time of 550 s.
With `CC(C)(C)OC(=O)N1CCN(c2ncc(C(=O)Nc3ccccc3)c(N)n2)CC1` the RP-LC retention time was 760 s.
`O=C(Nc1ccc(F)c(Cl)c1)C1CCN(C(=O)c2ncn3c2COC(c2ccccc2)C3)CC1` (stereo not drawn) gave an RP-LC retention time of 864 s.
Work on `CCc1noc(NC(C)=O)c1-c1ccc(OC)c(S(=O)(=O)N2CCCC2)c1` yielded an RP-LC retention time of 710 s.
For `O=C(Oc1ccc2oc(=O)sc2c1)c1cccc(Cl)c1`, the RP-LC retention time was 1090 s.
Compound `O=C(Nc1ccc2c(c1)OCO2)C1CCCN(c2ccnc(-c3ccc(F)cc3)n2)C1` (stereo not drawn) has an RP-LC retention time of 674 s.
`CCc1cccc(NC(=O)N(C)CC2CCOCC2)c1` gave an RP-LC retention time of 795 s.
In the case of `CC(=O)N1CCC(C(=O)N2CCCCCCN(C)C(=O)[C@@H]3CCC[C@@H]32)CC1`, the RP-LC retention time is reported as 658 s.
`Cc1cccc2nnc(N3CCCC(C(=O)N4CCN(C5CCCCC5)CC4)C3)n12` (stereo not drawn) showed an RP-LC retention time of 570 s.
Compound `CCCOc1nccnc1N1CCC(N(C)C(=O)c2ccc(C)nc2)C1` (stereo not drawn) has an RP-LC retention time of 657 s.
With `Cc1cc(C(=O)N2CCCCC2)c2c(=O)n(CC(=O)NC3CCCCC3)c(=O)n(C)c2n1` the RP-LC retention time was 786 s.
In the case of `Cc1noc(C)c1-c1ccc(S(=O)(=O)NCCc2ccccc2)cc1`, the RP-LC retention time is reported as 957 s.
Work on `Cc1ccc2c(Nc3ccc(Br)cc3)c(C(=O)N3CCOCC3)cnc2n1` yielded an RP-LC retention time of 608 s.
Compound `COc1ccc2c(c1)N(CC(C)CN(C)C)c1ccccc1S2` (stereo not drawn) has an RP-LC retention time of 804 s.
Work on `COc1c(OP2(=S)OCC(C)(C)CO2)cnn(C2CCCCC2)c1=O` yielded an RP-LC retention time of 1190 s.
Work on `CC(=O)Nc1ccc(S(=O)(=O)NC2(c3nc(C4CC4)no3)CCCCC2)cc1Cl` yielded an RP-LC retention time of 813 s.
In the case of `Cc1cc(C)n(-c2cc(NCCNC(=O)c3c[nH]c4ccccc34)nc(C)n2)n1`, the RP-LC retention time is reported as 630 s.
Compound `COc1ccc(C(=O)N2CCC3(CC2)NC(=O)c2ccc(Cl)cc2N3)c(C)c1` has an RP-LC retention time of 800 s.
For `CC1=C(c2ccc(Cl)cc2)S(=O)(=O)N=C1N1CCCN(C(=O)C(C)(C)C)CC1`, the RP-LC retention time was 900 s.
`CCOC(=O)C1CCCN(c2nc(-c3ccc(Cl)cc3)nc3ccccc23)C1` (stereo not drawn) showed an RP-LC retention time of 936 s.
Work on `CN1C(=O)[C@H]2CN(Cc3ccccc3Cl)C[C@H]2C1=O` yielded an RP-LC retention time of 600 s.
`CC(Oc1ccc(C(C)(C)C)cc1)C(=O)N(Cc1ccco1)C1CCS(=O)(=O)C1` (stereo not drawn) showed an RP-LC retention time of 1050 s.
For `O=C(CCCc1ccccc1)Nc1cnn(-c2ncc(N3CCCC3)cn2)c1`, the RP-LC retention time was 849 s.
With `O=C(Cc1ccc(Cl)cc1)Nc1cnc(-c2ccccc2)nc1` the RP-LC retention time was 1000 s.
With `CC1CCN(C(CNC(=O)c2cc(-c3ccc4c(c3)OCCO4)on2)c2ccco2)CC1` (stereo not drawn) the RP-LC retention time was 720 s.
Work on `O=C1C(N2CCCN(S(=O)(=O)c3cccc(Cl)c3)CC2)CCN1Cc1ccccc1` (stereo not drawn) yielded an RP-LC retention time of 718 s.
`Cc1ccc(-c2cc3c(=O)n(Cc4noc(CN5CCCC5)n4)ccn3n2)cc1` gave an RP-LC retention time of 654 s.
Compound `O=C(COc1cccc(C(F)(F)F)c1)N1CCN(c2ccc(-c3ccco3)nn2)CC1` has an RP-LC retention time of 739 s.
For `O=C(Nc1cccc(C(F)(F)F)c1)N1C[C@H]2C[C@H](C1)[C@H]1CCCC(=O)N1C2`, the RP-LC retention time was 731 s.
Compound `Cc1ccc(-c2noc(-c3nc(Cc4ccccc4)no3)n2)cc1` has an RP-LC retention time of 1240 s.
`Cc1cc(C(=O)N2CCN(c3ccccn3)CC2)nc2ccnn12` gave an RP-LC retention time of 556 s.
`Cc1cccc2c1NC(=O)C2(O)CC(=O)c1ccc(C(C)C)cc1` (stereo not drawn) gave an RP-LC retention time of 860 s.
